Here are results for two molecules from paper PMC5923425, “Structural analysis of human ARS2 as a platform for co-transcriptional RNA sorting” (Nature Communications, 2018).

One experiment has as its target T1, CBP20 (Homo sapiens, UniProt P52298).
T1 construct: gene NCBP2; CBP20 alone, recombinant, purified as described previously
T1 sequence (P52298 2-156): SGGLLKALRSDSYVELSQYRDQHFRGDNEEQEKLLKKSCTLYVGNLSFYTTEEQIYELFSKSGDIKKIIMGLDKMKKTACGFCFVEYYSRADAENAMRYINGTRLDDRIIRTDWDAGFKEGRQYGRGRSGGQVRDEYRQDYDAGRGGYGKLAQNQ
Description: isothermal titration calorimetry. The class given is binding. Particulars: 250 mM NaCl, 20 mM HEPES, 2 mM TCEP, pH 7.8, 25 °C; CBP20 without CBP80. An excerpt: isothermal titration calorimetry on CBP20
(In general: Isothermal titration calorimetry measures the heat released or taken up as one component is titrated into another.)

The target in a further experiment is T2, CBP20/2xCBP80 (CBC) (Homo sapiens, UniProt P52298).
T2 construct: gene NCBP2; CBP20-CBP80 heterodimer, CBP80 added 2x (apparently molar excess)
T2 sequence (P52298 2-156): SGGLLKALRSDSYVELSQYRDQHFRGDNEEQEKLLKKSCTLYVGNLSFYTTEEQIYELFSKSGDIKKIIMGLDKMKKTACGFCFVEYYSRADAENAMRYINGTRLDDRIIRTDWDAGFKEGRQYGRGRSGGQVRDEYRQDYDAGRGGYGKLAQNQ
T2 sequence (Q09161 20-790 partner limits assumed): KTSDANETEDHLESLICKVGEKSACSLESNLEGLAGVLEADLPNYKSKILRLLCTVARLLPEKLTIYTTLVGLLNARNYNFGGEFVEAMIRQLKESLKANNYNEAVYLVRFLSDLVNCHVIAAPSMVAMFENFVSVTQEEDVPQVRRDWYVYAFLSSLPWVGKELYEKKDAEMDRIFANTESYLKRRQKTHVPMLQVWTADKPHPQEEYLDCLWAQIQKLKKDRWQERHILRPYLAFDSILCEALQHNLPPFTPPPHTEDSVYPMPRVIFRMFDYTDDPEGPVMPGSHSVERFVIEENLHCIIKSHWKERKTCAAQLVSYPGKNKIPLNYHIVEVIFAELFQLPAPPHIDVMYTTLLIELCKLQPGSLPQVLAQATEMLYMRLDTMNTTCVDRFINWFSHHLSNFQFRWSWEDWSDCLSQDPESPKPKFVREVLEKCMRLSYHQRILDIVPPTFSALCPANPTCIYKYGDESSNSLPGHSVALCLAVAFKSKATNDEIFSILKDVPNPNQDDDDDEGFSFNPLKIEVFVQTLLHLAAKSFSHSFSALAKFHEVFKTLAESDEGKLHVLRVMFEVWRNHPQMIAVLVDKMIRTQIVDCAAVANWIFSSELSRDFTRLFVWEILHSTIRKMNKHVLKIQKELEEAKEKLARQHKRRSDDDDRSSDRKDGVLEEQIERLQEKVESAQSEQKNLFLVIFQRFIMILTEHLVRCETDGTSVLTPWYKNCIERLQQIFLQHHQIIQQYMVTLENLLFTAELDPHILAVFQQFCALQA
Description: isothermal titration calorimetry. The class given is binding. To be noted: 250 mM NaCl, 20 mM HEPES, 2 mM TCEP, pH 7.8, 25 °C; CBP80 present (2x). The source says:
isothermal titration calorimetry on CBP20/2xCBP80 (CBC)

Experiment [1] concerns the target T3, NCBP3 (full-length, residues 1–620) (Homo sapiens, UniProt Q53F19).
T3 construct: full-length residues 1-620, pFASTBac HTb, expressed in High Five insect cells, N-terminal His6 tag cleaved with TEV
T3 sequence (Q53F19 1-620): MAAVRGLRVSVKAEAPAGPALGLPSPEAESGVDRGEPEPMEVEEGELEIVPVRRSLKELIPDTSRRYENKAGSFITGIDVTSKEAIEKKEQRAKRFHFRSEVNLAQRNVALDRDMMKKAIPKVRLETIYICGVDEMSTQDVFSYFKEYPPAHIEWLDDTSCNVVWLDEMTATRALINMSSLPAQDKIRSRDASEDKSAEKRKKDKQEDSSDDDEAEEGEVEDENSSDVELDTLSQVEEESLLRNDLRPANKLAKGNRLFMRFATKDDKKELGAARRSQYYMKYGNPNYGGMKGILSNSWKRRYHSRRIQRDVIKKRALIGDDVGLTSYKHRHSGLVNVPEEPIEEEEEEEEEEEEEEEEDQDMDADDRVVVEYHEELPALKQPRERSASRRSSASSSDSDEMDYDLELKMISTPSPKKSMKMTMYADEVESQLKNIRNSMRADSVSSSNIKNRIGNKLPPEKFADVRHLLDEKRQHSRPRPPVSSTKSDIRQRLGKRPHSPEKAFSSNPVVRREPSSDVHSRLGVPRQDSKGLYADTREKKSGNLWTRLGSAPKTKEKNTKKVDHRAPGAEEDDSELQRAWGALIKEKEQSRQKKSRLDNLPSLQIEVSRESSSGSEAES
Description: isothermal titration calorimetry. The class given is binding. An excerpt:
isothermal titration calorimetry on NCBP3 (full-length, residues 1–620)

The target in another experiment is T4, NCBP3/2xCBP80 (Homo sapiens, UniProt Q53F19).
T4 construct: full-length NCBP3 (insect cells, tag cleaved) with CBP80 added (2x, apparently molar excess)
T4 sequence (Q53F19 1-620): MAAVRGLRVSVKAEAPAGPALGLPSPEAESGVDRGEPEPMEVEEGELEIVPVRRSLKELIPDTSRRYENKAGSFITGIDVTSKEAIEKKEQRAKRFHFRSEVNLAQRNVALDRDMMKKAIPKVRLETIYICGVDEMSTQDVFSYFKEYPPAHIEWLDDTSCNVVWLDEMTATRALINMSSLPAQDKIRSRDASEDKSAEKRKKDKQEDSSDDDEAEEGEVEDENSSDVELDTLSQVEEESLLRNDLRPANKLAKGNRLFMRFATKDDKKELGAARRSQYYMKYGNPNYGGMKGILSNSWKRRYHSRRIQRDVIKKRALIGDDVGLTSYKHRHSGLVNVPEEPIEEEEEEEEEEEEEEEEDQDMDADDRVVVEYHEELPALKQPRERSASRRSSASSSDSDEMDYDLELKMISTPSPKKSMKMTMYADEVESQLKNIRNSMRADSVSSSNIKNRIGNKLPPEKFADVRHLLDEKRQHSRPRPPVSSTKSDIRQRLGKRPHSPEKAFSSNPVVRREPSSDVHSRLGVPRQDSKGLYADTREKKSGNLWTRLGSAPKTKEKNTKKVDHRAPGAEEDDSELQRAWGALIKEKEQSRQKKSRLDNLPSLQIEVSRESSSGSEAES
T4 sequence (Q09161 20-790 partner limits assumed): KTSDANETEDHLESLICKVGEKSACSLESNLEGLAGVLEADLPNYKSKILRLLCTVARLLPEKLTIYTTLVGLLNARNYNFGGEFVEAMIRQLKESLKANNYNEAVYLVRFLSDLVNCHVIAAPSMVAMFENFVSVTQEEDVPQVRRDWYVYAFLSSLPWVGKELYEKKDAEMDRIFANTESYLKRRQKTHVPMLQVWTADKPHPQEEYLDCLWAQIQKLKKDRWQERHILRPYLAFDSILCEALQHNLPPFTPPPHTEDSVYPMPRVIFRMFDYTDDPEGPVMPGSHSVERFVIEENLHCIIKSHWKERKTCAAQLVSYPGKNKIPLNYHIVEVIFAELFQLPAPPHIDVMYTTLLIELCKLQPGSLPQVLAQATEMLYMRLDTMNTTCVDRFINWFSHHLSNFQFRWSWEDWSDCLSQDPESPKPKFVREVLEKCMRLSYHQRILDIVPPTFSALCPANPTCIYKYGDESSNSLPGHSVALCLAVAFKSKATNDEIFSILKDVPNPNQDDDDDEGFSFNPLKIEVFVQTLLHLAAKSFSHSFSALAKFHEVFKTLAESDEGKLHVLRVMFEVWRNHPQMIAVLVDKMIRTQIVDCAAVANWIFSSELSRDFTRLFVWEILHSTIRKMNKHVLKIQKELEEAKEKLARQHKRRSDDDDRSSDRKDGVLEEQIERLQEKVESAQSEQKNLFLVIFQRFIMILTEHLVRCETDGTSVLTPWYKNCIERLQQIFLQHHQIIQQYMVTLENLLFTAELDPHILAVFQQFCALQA
Description: isothermal titration calorimetry. The format is binding. An excerpt: isothermal titration calorimetry on NCBP3/2xCBP80

A further experiment concerns the target T5, NCBP3 1–282 (Homo sapiens, UniProt Q53F19).
T5 construct: N-terminal region with putative RRM domain, residues 1-282, pETM11, E. coli Rosetta 2, His6 tag cleaved with TEV
T5 sequence (Q53F19 1-282): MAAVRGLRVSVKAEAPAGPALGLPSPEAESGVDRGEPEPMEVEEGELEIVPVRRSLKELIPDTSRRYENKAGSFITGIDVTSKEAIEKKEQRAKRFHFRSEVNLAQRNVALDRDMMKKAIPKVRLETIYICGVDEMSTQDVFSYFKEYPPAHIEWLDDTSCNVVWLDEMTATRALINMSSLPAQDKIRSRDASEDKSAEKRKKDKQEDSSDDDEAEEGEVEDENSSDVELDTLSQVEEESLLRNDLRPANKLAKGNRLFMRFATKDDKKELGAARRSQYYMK
In words: isothermal titration calorimetry. The format is binding. An excerpt:
isothermal titration calorimetry on NCBP3 1–282

A further experiment addresses T6, ARS2^147–871 (human, UniProt Q9BXP5-4 147-871).
T6 construct: human ARS2 (SRRT) isoform-e, 871 residues, residues 147-871, cloned into pETM11; also called hARS2; SRRT; source: E. coli Rosetta 2, purified (Ni-Sepharose, TEV cleavage, HiTrap Q, heparin if necessary, SEC); not shown: His6, N-terminal, cleaved
T6 sequence (looked up): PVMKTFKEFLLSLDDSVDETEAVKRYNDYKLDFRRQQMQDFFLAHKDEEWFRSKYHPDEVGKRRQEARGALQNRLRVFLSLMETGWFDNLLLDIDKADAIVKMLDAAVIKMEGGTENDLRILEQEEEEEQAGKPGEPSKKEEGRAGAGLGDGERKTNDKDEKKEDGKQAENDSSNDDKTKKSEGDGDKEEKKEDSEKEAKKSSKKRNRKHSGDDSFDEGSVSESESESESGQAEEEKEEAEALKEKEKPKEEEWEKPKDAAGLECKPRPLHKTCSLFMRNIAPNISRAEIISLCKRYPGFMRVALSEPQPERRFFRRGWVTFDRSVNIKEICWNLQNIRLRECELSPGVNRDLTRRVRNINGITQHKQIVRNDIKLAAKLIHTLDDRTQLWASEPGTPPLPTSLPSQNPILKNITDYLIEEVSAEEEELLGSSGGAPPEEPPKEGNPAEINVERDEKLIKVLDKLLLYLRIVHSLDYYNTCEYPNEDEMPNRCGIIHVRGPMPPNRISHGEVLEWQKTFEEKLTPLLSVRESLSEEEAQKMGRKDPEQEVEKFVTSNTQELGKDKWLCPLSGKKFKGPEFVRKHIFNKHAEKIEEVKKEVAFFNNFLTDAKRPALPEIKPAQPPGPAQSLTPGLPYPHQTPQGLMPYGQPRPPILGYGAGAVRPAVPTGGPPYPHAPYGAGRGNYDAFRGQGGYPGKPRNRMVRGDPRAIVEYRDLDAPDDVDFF
In words: pull-down; GST–FLASH 903–943 (or GST as control) immobilised on glutathione sepharose, incubated with purified ARS2 constructs 30 min at 10 °C; flow-through, wash and elution on Coomassie-stained SDS-PAGE. To be noted: both partners purified.

Broadly, the Kd is the concentration at which binding is half-saturated. High values mean a looser complex, low ones a tighter complex. Consider `C[n+]1cn([C@@H]2O[C@H](COP(=O)(O)OP(=O)(O)OP(=O)(O)O)[C@@H](O)[C@H]2O)c2nc(N)[nH]c(=O)c21` [m^7GTP], for which the dissociation constant Kd at CBP20 was found to be 84 ± 4.2 µM; on CBP20/2xCBP80 (CBC), 370 ± 40 nM; in experiment [1], 4.6 ± 1 µM; on NCBP3/2xCBP80, 7.9 ± 0.9 µM; on NCBP3 1–282, 8.3 ± 3 µM.

B1: GST–FLASH^903–943 (domain or fragment, UniProt Q9UKL3 903-943, looked up)
chain: SDLNKENQKPIYKSDKCTEADTCKNSPLDELEEGEIRSDSE
notes: FLASH (FLICE-associated huge protein), residues 903-943, holds FARB; cloned into the GST-vector pETM30; source: E. coli, expressed and purified; immobilised on glutathione sepharose
B1: in the experiment with ARS2^147–871, the binding result is “binds”.
